Experimental data from patent US10231954B2, “Neurodegenerative therapies” (LYTIX BIOPHARMA AS, priority 2014, dated 2019).

Legend:
Format in all cases: biochemical
Conditions in all cases: 100 micromolar inhibitor concentration, 100 is no change
MAPKAP-K3 = MAPKAP-K3 (Homo sapiens, UniProt Q16644); assay: Kinase profiling MAPKAP-K3
Description: (§1) Any value less that 25 is considered to be highly significant inhibition.

PRAK = target: T1, PRAK (Homo sapiens, UniProt Q8IW41); assay: Kinase profiling PRAK
T1 sequence (Q8IW41 1-473): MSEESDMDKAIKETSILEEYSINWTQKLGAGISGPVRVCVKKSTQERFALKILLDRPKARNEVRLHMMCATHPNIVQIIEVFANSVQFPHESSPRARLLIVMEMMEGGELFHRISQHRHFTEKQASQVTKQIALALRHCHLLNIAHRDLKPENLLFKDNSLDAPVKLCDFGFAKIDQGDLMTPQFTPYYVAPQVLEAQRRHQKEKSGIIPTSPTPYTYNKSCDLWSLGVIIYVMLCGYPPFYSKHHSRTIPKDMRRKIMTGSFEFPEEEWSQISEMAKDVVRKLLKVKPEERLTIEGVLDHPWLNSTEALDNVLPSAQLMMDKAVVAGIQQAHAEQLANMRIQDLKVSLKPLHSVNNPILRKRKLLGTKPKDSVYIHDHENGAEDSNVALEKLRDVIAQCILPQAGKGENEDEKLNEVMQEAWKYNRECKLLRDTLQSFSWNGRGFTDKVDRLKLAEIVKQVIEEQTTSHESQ
Description: as §1

TLK1 = target: T2, TLK1 (Homo sapiens, UniProt Q9UKI8); assay: Kinase profiling TLK1
T2 sequence (Q9UKI8 1-766): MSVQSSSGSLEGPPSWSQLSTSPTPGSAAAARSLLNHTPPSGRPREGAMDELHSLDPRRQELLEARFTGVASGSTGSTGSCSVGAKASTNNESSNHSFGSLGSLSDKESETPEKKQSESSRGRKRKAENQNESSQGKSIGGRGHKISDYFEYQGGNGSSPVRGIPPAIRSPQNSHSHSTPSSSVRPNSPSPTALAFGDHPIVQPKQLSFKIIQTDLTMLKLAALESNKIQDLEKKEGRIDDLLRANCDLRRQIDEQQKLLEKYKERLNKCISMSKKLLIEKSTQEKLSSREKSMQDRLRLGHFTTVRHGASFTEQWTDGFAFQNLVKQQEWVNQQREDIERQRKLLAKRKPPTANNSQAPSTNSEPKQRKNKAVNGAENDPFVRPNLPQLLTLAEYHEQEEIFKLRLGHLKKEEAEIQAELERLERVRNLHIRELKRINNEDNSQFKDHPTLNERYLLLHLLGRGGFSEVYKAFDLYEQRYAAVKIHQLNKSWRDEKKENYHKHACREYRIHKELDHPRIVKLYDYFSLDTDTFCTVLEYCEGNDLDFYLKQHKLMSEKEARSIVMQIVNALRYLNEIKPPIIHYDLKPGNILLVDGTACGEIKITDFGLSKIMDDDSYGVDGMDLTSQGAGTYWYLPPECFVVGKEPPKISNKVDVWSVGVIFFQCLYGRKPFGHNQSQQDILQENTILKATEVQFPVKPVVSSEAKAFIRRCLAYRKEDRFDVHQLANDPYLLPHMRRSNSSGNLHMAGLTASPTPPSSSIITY
Description: as §1

HIPK3 = HIPK3 (Homo sapiens, UniProt Q9H422); assay: Kinase profiling HIPK3
Sequence of HIPK3 (Q9H422 whole entry, species assumed): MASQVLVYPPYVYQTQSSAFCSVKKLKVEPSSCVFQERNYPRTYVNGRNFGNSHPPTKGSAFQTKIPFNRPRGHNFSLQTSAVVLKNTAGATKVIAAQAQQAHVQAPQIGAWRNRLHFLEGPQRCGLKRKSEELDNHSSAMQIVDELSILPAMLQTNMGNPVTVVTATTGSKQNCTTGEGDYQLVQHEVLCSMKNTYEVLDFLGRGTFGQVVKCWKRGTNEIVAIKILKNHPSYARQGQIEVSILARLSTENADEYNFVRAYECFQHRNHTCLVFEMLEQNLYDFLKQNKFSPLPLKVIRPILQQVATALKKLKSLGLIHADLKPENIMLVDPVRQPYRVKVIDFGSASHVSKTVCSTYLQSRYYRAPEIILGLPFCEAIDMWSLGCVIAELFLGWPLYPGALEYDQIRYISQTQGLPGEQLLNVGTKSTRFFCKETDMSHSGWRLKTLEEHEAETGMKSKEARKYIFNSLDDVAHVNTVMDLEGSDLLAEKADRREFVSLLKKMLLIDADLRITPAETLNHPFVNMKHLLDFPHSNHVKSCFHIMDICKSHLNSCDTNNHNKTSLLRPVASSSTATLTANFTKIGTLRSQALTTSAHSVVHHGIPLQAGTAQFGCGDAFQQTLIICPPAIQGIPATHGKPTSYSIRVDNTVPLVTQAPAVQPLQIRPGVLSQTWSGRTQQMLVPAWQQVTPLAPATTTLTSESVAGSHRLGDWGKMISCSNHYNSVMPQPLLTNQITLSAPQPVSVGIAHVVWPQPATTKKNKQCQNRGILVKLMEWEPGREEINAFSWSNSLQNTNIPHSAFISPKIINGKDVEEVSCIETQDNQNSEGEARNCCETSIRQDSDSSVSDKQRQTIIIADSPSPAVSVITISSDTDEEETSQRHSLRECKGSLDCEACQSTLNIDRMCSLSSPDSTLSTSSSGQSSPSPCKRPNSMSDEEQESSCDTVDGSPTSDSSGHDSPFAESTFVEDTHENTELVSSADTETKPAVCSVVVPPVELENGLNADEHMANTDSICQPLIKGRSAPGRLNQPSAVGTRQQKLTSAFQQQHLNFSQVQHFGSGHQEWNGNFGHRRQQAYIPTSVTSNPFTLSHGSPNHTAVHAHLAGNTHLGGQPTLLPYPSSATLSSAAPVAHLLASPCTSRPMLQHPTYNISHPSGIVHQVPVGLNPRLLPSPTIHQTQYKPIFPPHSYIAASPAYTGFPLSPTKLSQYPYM
Description: as §1

ULK1 = target: T3, ULK1 (Homo sapiens, UniProt O75385); assay: Kinase profiling ULK1
T3 sequence (O75385 1-1050): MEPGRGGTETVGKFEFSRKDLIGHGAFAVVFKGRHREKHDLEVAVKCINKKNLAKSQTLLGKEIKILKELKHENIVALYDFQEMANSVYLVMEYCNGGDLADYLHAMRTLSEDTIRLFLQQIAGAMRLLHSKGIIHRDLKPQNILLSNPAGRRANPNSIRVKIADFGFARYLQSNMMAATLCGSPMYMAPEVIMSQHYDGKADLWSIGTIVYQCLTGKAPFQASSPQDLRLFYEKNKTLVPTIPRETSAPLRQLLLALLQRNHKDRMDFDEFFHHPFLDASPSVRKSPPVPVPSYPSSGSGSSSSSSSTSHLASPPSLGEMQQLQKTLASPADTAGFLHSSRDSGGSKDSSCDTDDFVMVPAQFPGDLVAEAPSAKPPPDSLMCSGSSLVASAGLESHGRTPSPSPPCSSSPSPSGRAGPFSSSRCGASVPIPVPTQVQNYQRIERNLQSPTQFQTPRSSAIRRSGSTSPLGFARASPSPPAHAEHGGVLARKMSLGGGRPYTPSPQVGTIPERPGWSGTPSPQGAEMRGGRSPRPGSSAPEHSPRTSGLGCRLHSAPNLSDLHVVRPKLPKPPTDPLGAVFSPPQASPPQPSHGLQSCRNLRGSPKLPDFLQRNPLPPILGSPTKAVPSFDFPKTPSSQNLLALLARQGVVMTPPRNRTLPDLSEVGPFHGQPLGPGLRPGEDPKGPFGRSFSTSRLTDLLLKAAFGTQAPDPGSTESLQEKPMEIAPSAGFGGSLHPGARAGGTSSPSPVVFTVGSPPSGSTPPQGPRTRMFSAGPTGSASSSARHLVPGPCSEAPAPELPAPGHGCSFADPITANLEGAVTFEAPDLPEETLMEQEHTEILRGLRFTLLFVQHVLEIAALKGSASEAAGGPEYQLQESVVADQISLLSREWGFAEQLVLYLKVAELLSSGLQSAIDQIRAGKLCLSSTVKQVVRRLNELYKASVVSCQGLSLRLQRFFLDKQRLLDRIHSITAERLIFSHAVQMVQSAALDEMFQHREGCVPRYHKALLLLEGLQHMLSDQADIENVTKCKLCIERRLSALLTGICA
Description: as §1

TGFBR1 = target: T4, TGFBR1 (Homo sapiens, UniProt P36897); assay: Kinase profiling TGFBR1
T4 sequence (P36897 34-503): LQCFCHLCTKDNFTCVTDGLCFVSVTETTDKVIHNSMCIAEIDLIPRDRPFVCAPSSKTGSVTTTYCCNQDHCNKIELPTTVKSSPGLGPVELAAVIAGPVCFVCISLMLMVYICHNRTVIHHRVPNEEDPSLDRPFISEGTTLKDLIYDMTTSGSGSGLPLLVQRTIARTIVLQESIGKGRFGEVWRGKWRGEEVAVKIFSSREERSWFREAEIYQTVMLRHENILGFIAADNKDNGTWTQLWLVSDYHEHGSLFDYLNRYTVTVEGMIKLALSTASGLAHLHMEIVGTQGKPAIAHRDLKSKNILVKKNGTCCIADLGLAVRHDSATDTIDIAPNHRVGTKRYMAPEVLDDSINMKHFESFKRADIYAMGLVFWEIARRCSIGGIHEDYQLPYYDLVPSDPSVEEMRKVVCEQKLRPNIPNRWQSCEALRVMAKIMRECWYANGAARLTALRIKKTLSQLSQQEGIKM
Description: as §1

PDGFRA = PDGFRA (Homo sapiens, UniProt P16234); assay: Kinase profiling PDGFRA
Sequence of PDGFRA (P16234 24-1089, species assumed): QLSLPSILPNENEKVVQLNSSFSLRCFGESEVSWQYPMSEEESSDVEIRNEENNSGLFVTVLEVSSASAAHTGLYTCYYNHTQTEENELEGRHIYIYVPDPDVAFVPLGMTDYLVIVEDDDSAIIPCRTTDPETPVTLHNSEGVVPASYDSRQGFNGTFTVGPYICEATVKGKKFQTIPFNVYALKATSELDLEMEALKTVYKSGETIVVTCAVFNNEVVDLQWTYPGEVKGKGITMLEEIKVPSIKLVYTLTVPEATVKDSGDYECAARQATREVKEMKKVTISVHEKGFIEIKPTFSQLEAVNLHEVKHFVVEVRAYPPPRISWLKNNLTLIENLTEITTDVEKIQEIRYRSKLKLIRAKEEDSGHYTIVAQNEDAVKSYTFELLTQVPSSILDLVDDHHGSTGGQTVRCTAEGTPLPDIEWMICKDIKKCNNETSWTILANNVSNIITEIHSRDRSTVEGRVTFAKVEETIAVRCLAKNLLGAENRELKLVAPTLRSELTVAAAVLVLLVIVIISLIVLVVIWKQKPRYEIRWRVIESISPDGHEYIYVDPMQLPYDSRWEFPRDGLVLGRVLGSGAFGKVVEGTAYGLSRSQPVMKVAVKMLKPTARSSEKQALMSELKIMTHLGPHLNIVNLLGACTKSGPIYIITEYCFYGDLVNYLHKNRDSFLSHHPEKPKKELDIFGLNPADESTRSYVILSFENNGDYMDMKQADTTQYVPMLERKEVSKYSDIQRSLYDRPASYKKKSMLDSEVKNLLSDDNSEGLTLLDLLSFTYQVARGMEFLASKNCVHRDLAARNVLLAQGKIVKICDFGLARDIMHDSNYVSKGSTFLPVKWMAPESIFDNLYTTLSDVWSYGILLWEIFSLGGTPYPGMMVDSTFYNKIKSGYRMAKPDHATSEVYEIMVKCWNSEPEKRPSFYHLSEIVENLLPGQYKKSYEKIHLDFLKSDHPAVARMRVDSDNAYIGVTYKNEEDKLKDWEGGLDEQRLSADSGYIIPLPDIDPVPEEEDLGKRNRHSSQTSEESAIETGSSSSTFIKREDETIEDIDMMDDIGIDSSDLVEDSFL
Description: as §1

Sequence of MAPKAP-K3 (Q16644 whole entry, species assumed): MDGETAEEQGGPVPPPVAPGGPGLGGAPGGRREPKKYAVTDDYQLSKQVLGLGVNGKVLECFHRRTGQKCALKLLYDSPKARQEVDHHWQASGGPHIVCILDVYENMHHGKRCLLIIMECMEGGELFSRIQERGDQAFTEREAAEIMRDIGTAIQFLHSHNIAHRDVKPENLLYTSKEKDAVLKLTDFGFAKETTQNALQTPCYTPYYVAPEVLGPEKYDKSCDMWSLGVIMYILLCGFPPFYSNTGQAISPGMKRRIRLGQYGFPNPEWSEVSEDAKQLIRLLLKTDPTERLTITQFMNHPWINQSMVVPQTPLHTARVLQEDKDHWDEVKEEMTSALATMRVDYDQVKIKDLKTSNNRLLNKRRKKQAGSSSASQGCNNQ

Compound | residual kinase activity, MAPKAP-K3 (MAPKAP-K3) | residual kinase activity, PRAK (PRAK) | residual kinase activity, TLK1 (TLK1) | residual kinase activity, HIPK3 (HIPK3) | residual kinase activity, ULK1 (ULK1) | residual kinase activity, TGFBR1 (TGFBR1) | residual kinase activity, PDGFRA (PDGFRA) | remaining activity at 100 µM (MAPKAP-K3; read-out: residual kinase activity, MAPKAP-K3) [%] | remaining activity at 100 µM (PRAK; read-out: residual kinase activity, PRAK) [%] | remaining activity at 100 µM (TLK1; read-out: residual kinase activity, TLK1) [%] | remaining activity at 100 µM (HIPK3; read-out: residual kinase activity, HIPK3) [%] | remaining activity at 100 µM (ULK1; read-out: residual kinase activity, ULK1) [%] | remaining activity at 100 µM (TGFBR1; read-out: residual kinase activity, TGFBR1) [%] | remaining activity at 100 µM (PDGFRA; read-out: residual kinase activity, PDGFRA) [%]
O=C(Nc1nc2ccc(O)cc2s1)c1ccncc1 [Compound 08-42] | 51 | 74 | 97 | 90 | 69 | 106 | 40 | – | – | – | – | – | – | –
O=C(Nc1nc2cc(O)ccc2s1)c1ccccn1 [Compound 03-13] | 62 | 90 | 99 | 82 | 78 | 109 | 43 | – | – | – | – | – | – | –
COc1ccc2sc(NC(C)=O)nc2c1 [Compound 03-21] | – | – | – | – | – | – | – | 97 | 71 | 97 | 86 | 103 | 124 | 87
O=C(Nc1nc2cc(O)ccc2s1)c1ccncc1 [Compound 03-11] | 68 | 86 | 95 | 106 | 90 | 107 | 63 | – | – | – | – | – | – | –
